± gives the standard deviation of the averaged measurements.
Experiments:
Conditions in all cases: 72 h
Caco-2 [1] = assay: drug sensitivity score (DSS) for viability; higher = more toxic; extreme values may be limits of the assay
Calu-3 [2] = assay: as above
Vero E6 [3] = assay: as above
HepG2 [4] = assay: as above
U2OS [5] = assay: as above
Caco-2 [6] = assay: cell viability relative to DMSO; higher = less toxic
Calu-3 [7] = assay: as above
Vero E6 [8] = assay: as above
HepG2 [9] = assay: as above
U2OS [10] = assay: as above
Caco-2 [11] = assay: relative viability EC50 (midpoint between 100% and the lowest measured viability); higher = less toxic
Calu-3 [12] = assay: as above
Vero E6 [13] = assay: as above
HepG2 [14] = assay: as above
U2OS [15] = assay: as above

Row | SMILES | drug sensitivity score (Caco-2 [1]) | drug sensitivity score (Calu-3 [2]) | drug sensitivity score (Vero E6 [3]) | drug sensitivity score (HepG2 [4]) | drug sensitivity score (U2OS [5]) | cell viability (Caco-2 [6]; 1 nM) [%] | cell viability (Caco-2 [6]; 10 nM) [%] | cell viability (Caco-2 [6]; 100 nM) [%] | cell viability (Caco-2 [6]; 1000 nM) [%] | cell viability (Caco-2 [6]; 10000 nM) [%] | cell viability (Calu-3 [7]; 1 nM) [%] | cell viability (Calu-3 [7]; 10 nM) [%] | cell viability (Calu-3 [7]; 100 nM) [%] | cell viability (Calu-3 [7]; 1000 nM) [%] | cell viability (Calu-3 [7]; 10000 nM) [%] | cell viability (Vero E6 [8]; 1 nM) [%] | cell viability (Vero E6 [8]; 10 nM) [%] | cell viability (Vero E6 [8]; 100 nM) [%] | cell viability (Vero E6 [8]; 1000 nM) [%] | cell viability (Vero E6 [8]; 10000 nM) [%] | cell viability (HepG2 [9]; 1 nM) [%] | cell viability (HepG2 [9]; 10 nM) [%] | cell viability (HepG2 [9]; 100 nM) [%] | cell viability (HepG2 [9]; 1000 nM) [%] | cell viability (HepG2 [9]; 10000 nM) [%] | cell viability (U2OS [10]; 1 nM) [%] | cell viability (U2OS [10]; 10 nM) [%] | cell viability (U2OS [10]; 100 nM) [%] | cell viability (U2OS [10]; 1000 nM) [%] | cell viability (U2OS [10]; 10000 nM) [%] | relative viability EC50 (Caco-2 [11]) [µM] | relative viability EC50 (Calu-3 [12]) [µM] | relative viability EC50 (Vero E6 [13]) [µM] | relative viability EC50 (HepG2 [14]) [µM] | relative viability EC50 (U2OS [15]) [µM]
1 | CCOC(=O)CCC(=O)O[C@H]1[C@H](O[C@@H]2[C@@H](C)[C@H](O[C@H]3C[C@@](C)(OC)[C@@H](O)[C@H](C)O3)[C@@H](C)C(=O)O[C@H](CC)[C@@](C)(O)[C@H](O)[C@@H](C)C(=O)[C@H](C)C[C@@]2(C)O)O[C@H](C)C[C@@H]1N(C)C [erythromycin-ethylsuccinate] | 0 | 0 | 0 | 0 | 0 | 87.7 | 114 | 85.5 | 100 | 99.5 | 101 | 98.5 | 100 | 101 | 96.3 | 112 | 94.8 | 103 | 100 | 104 | 97.8 | 107 | 101 | 87.5 | 101 | 102 | 103 | 96.8 | 106 | 100 | > 10 | > 10 | > 10 | > 10 | > 10
2 | Nc1nc(=O)c2c([nH]1)NCC(CNc1ccc(C(=O)N[C@@H](CCC(=O)O)C(=O)O)cc1)N2C=O (stereo not given in full) [leucovorin] | 0 | 0 | 0 | 0 | 0 | 92 ± 1.3 | 94.5 ± 6.2 | 89.6 ± 2.3 | 100.3 ± 0.92 | 100 ± 2 | 103 ± 15 | 96.9 ± 7.9 | 97.45 ± 0.78 | 99.3 ± 1.7 | 105 ± 7.5 | 101 ± 3.2 | 98.2 ± 5.1 | 104 ± 1.4 | 97.2 ± 2 | 101 ± 6.8 | 116 | 96.5 | 100 | 108 | 97.5 | 108 | 98.9 | 98.1 | 95.6 | 99.2 | > 10 | > 10 | > 10 | > 10 | > 10
3 | CC(=O)N[C@@H](Cc1ccc(O)cc1)C(=O)O [N-acetyl-tyrosine] | 0 | 0 | 0 | 0 | 0 | 92.7 | 92.8 | 91 | 95.6 | 102 | 105 | 107 | 108 | 106 | 94.6 | 98.6 | 93.4 | 94.3 | 95 | 101 | 93.9 | 88.5 | 93.8 | 97.7 | 98.2 | 95.3 | 101 | 96.6 | 101 | 107 | > 10 | > 10 | > 10 | > 10 | > 10
4 | O=C1c2cccc3c2[C@H](CCC3)CN1[C@@H]1CN2CCC1CC2 [palonosetron] | 0 | 0 | 0.5 | 0 | 0 | 105 | 97.5 | 90.8 | 96.8 | 102 | 106 | 99 | 91.3 | 100 | 98.8 | 99.7 | 103 | 103 | 99.3 | 82.4 | 94.4 | 90.2 | 88.6 | 96.1 | 88.9 | 98.9 | 97.5 | 99.5 | 100 | 94.2 | > 10 | > 10 | > 10 | > 10 | > 10
5 | COc1ccc2[nH]c(-c3ccccc3)c(CCNC(C)=O)c2c1 [2-phenylmelatonin] | 0.6 | 0 | 0 | 0 | 0 | 98.8 | 105 | 93 | 98 | 82.6 | 96.5 | 94.9 | 99.3 | 106 | 102 | 101 | 99.9 | 106 | 98.8 | 93.7 | 104 | 99.5 | 101 | 101 | 105 | 102 | 101 | 97.6 | 105 | 98.1 | > 10 | > 10 | > 10 | > 10 | > 10
6 | COc1ccc(/C=C/C(=O)O)cc1 [trans-4-methoxycinnamic-acid] | 0 | 0 | 0 | 0 | 0 | 95.1 | 99.6 | 88.7 | 100 | 88.3 | 103 | 92.2 | 108 | 98 | 98.8 | 99.3 | 102 | 98.1 | 103 | 97.7 | 106 | 92 | 100 | 91.7 | 96.3 | 101 | 96.3 | 102 | 98.6 | 97.5 | > 10 | > 10 | > 10 | > 10 | > 10

Reference: the supplement of paper PMC13380429
